Patent US20110059909A1, “METHODS FOR TREATING INFLAMMATORY DISORDERS” (priority 2004, published 2011)

Tests used:
rat primary astrocytes [1] = assay: BrdU incorporation assay, proliferation of primary astrocytes; assay type: cell-based; details: for TNFα-induced astrocyte proliferation: pretreated 0.5 h (AS: 48 h after transfection), TNFα 1 ng/ml 18 h
Protocol: (§1) Primary astrocyte-enriched cultures were prepared from the whole cortex of one day old Sprague-Dawley rats as described earlier (Pahan et al., 1998b). Briefly, the cortex was rapidly dissected in ice-cold calcium/magnesium free Hanks Balanced Salt Solution (HBSS) (Gibco, Grand Island, N.Y.) at pH 7.4 as described previously (Won et al., 2001). The tissue was then minced, incubated in HBSS containing trypsin (2 mg/ml) for 20 min and washed twice in plating medium containing 10% FBS and 10 μg/ml gentamicin, and then disrupted by triturating through a Pasteur pipette following which cells were seeded in 75-cm^2 culture flasks (Falcon, Franklin, N.J.). After incubation at 37° C. in 5% CO2 for 1 day, the medium was completely changed to the culture medium (DMEM containing 5% FBS and 10 μg/ml gentamicin). The cultures received half exchanges with fresh medium twice a week. After 14-15 days the cells were shaken for at least 24 h on an orbital shaker to remove the microglia and then seeded on multi-well tissue culture dishes. The cells were incubated with serum-free DMEM for 24 h prior to the incubation with drugs.
Proliferation of primary astrocytes was assayed by using the Cell proliferation ELISA, BrdU colorimetric assay kit (Roche, Germany) according to manufacturer's protocol. Briefly, cells were seeded in 96 well plates in quadruplicate and following overnight serum starvation were stimulated with mitogenic stimulants. 2 h before termination of proliferation assay, BrdU (10 μM) was added to each well following which cells were fixed and levels of incorporated BrdU were assayed by using a conjugated anti-BrdU enzyme. Colorimetric analysis was done by measuring absorbance at 370 nm using a spectramax MAX 190 (Molecular devices) multi-well plate reading spectrophotometer.

iNOS = iNOS mRNA (RT-PCR) and protein (immunoblot) in LPS/IFNγ-stimulated primary astrocytes; assay type: cell-based, rat; details: for LPS/IFNγ-induced iNOS mRNA and protein levels: primary astrocytes, LPS/IFNγ (1 μg/ml; 10 U/ml), mRNA 6 h, protein 24 h
Protocol: as §1
(§2) For iNOS protein, the cells were washed with cold Tris buffered saline (TBS; 20 mM Trizma base, and 137 mM NaCl, pH 7.5), lysed in 1×SDS sample loading buffer (62.5 mM Trizma base, 2% w/v SDS, 10% glycerol), following sonication and centrifugation at 15,000×g for 5 min, the supernatant was used for the iNOS western immunoblot assay. The protein concentration of samples was determined with the detergent compatible protein assay reagent (Bio-Rad Laboratories, CA) using bovine serum albumin (BSA) as the standard. Sample was boiled for 3 min with 0.1 volumes of 10% β-mercaptoethanol and 0.5% bromophenol blue mix. Fifty μg of total cellular protein was resolved by electrophoresis on 8 or 12% polyacrylamide gels, electro-transferred to polyvinylidene difluoride (PVDF) filter and blocked with Tween 20 containing Tris-buffered saline (TBST; 10 mM Trizma base-pH 7.4, 1% Tween 20, and 150 mM NaCl) with 5% skim milk. After incubation with antiserum against iNOS (BD PharMingen, CA), rat GalT-2 (Abjent Inc., CA), H-Ras (Upstate Biotechnology, CA), GFAP (Santa Cruz Biotech, CA), or phospho-specific ERK1/2 (Cell signaling Tech Inc., MA), or pIκ-B (Signal Transduction), in PVDF buffer for 2 h at room temperature, the filters were washed 3 times with TBST buffer and then incubated with horseradish peroxidase conjugated anti-rabbit or mouse IgG for 1 h. The membranes were detected by autoradiography using ECL-plus (Amersham Pharmacia Biotech) after washing with TBST buffer.
5 μg total RNA was treated with 2 U DNAse I (bovine pancreas, Sigma) for 15 min at room temperature in 18 μl volume containing 1×PCR buffer and 2 mM MgCl2. It was then inactivated by incubation with 2 μl of 25 mM EDTA at 65° C. for 15 min. 2 μl of random primers were added and annealed to the RNA according to the manufacturer's protocol. cDNA was synthesized in a 50 μl reaction containing 5 μg of total RNA and 50-100 U reverse transcriptase by incubating the tubes at 42° C. for 60 min. PCR amplification was conducted in 25 μl of reaction mixture with 1.0 μl of cDNA, […] of each primer and under the manufacturer's Taq polymerase conditions (Takara, Takara Shuzo Co. Ltd, Japan). The sequence of primers used for PCR amplification are as follows; iNOS, (Forward-5′ […] 3′, SEQ ID NO:3; Reverse-5′ […] 3′, SEQ ID NO:4), GalT-2 (Forward-5′ tggtacaagctagaggc 3′, SEQ ID NO:5; Reverse-5′ gcatggcacattgaa C-3′, SEQ ID NO:6), GAPDH (Forward-5′ […] 3′, SEQ ID NO:7; Reverse-5′ cttcacgaagttgtcattgagggca3′, SEQ ID NO:8), TNFα (Forward-5′ […] g-3′, SEQ ID NO:9; Reverse-5′[…]-3′, SEQ ID NO:10) and IL-1β (Forward-5′[…]-3′, SEQ ID NO:11; reverse-5′[…]-3′, SEQ ID NO:12).

GFAP = GFAP mRNA (real time PCR) and protein (immunoblot) in TNFα-stimulated primary astrocytes; assay type: cell-based, rat; details: for TNFα-induced GFAP mRNA and protein expression: TNFα 1 ng/ml, mRNA 8 h, protein 18 h
Protocol: as §2

rat primary astrocytes [2] = assay: Assay for NO production (nitrite, Griess reagent) in LPS/IFNγ-stimulated primary astrocytes; assay type: cell-based; details: for LPS/IFNγ-induced NO production: primary astrocytes, LPS/IFNγ (1 μg/ml; 10 U/ml), NO at 24 h
Protocol: as §1
Cells were cultured in 12-well plastic tissue culture plates. Following appropriate treatment, production of NO was determined by an assay of the culture supernatant for nitrite (Green et al., 1982). Briefly, 100 μl of culture supernatant was allowed to react with 100 μl of Griess reagent. The optical density of the assay samples was measured spectrophotometrically at 570 nm. Nitrite concentrations were calculated from a standard curve derived from the reaction of NaNO2 in fresh media.

## Lactosylceramide [LacCer]
Rat primary astrocytes [1]; LY 30 μM plus exogenous lipid
  Reversal of LY-mediated inhibition of TNFα-induced proliferation: effectively blunted
Rat primary astrocytes [1]; PDMP 25 μM plus exogenous lipid
  Reversal of PDMP-mediated inhibition of TNFα-induced proliferation: able to bypass
Rat primary astrocytes [1]; exogenous LacCer
  Reversal of GalT-2 AS-mediated inhibition of TNFα-induced proliferation: bypassed the inhibition
Rat primary astrocytes [1]; exogenous lipid
  Reversal of DMS-mediated inhibition of TNFα-induced proliferation: reversed
  Reversal of PD98059-mediated inhibition of TNFα-induced proliferation: could not be reversed
Rat primary astrocytes [1]; increasing doses (1, 5 and 10 μM for GSL), 18 h, BrdU incorporation
  Proliferation of astrocytes induced by the substance itself: induced proliferation
iNOS; NAC 10 mM or PDTC 100 μM, exogenous LacCer
  Reversal of NAC- and PDTC-mediated inhibition of LPS/IFNγ-stimulated iNOS gene expression: not reversed
iNOS; PDMP 50 μM plus LacCer 5 and 10 μM, 0.5 h before LPS/IFNγ
  Reversal of PDMP-mediated inhibition of iNOS gene expression: blunted
iNOS; exogenous LacCer, LPS/IFNγ
  Effect on PD98059-mediated inhibition of iNOS gene expression: no effect
GFAP; PDMP 25 μM plus LacCer 5 μM
  Reversal of PDMP-mediated inhibition of TNFα-induced GFAP expression: reversed
GFAP; exogenous LacCer
  Reversal of AS-mediated inhibition of GFAP expression: blunted
  Reversal of LY-mediated inhibition of TNFα-mediated GFAP expression: effectively bypassed
GFAP; exogenous LacCer, TNFα
  Effect on PD98059-mediated inhibition of GFAP expression: no effect
GFAP; exogenous lipid
  Reversal of DMS-mediated inhibition of TNFα-induced GFAP expression: reversed
Rat primary astrocytes [2]; PDMP 50 μM plus exogenous glycosphingolipid 5 and 10 μM, 0.5 h before LPS/IFNγ
  Reversal of PDMP-mediated inhibition of LPS/IFNγ-induced NO production: blunted
Rat primary astrocytes [2]; exogenous LacCer, LPS/IFNγ
  Reversal of GalT-2 AS-mediated inhibition of NO production and iNOS levels: reversed the inhibition

## CCCCCCCCCC(=O)NC(CN1CCOCC1)C(O)c1ccccc1.Cl [PDMP, D-threo-1-Phenyl-2-decanoylamino-3-morpholino-1-propanol.HCl]
Rat primary astrocytes [1]; BrdU incorporation
  TNFα-induced astrocyte proliferation: dose dependently inhibited
iNOS
  LPS/IFNγ-induced iNOS mRNA and protein levels: dose dependent decrease
GFAP
  TNFα-induced GFAP mRNA and protein expression: inhibited
Rat primary astrocytes [2]
  LPS/IFNγ-induced NO production: dose dependent decrease

## AS GalT-2 oligonucleotides: 20-mer antisense oligonucleotide 5′-CGCTTGAGCGCAGACATCTT-3′, SEQ ID NO:1, against rat lactosylceramide synthase (GalT-2) (antisense CGCTTGAGCGCAGACATCTT; chemistry not given here)
Rat primary astrocytes [1]; BrdU incorporation
  TNFα-induced astrocyte proliferation: decreased
iNOS
  LPS/IFNγ-induced iNOS mRNA and protein levels: decreased
GFAP
  TNFα-induced GFAP mRNA and protein expression: diminished
Rat primary astrocytes [2]
  LPS/IFNγ-induced NO production: decreased
